# Counter-ions that a name gives are not always drawn. Like-named read-outs stand apart in the source and are kept apart here.
# Assays:
# [1] = test system: peripheral dopamine (DA) and norepinephrine (NE) levels; test: In vivo effect on peripheral dopamine and norepinephrine levels; parameters: species or system spontaneously hypertensive rats; conditions: twice; for DA / NE: per gram of tissue, about 2 hours after second dose
# Protocol: One of the 2-cyano-2-phenethylamine compounds also was tested for its effect in vivo on peripheral dopamine (DA) and norepinephrine (NE) levels substantially by the procedure of DaPrada and Zurcher, Life Sciences, 19, 1161, (1976). Groups of five spontaneously hypertensive rats were dosed orally, twice, the second dose approximately 18 hours after the first, and were sacrificed about 2 hours after the second dose.
# [2] = test system: spontaneously hypertensive rats; test: Mean arterial blood pressure in spontaneously hypertensive rats; assay type: in vivo; conditions: 100 mg/kg intraperitoneally
# Protocol: Further, spontaneously hypertensive rats were dosed with a suspension or solution of 2-cyano-2-phenethylamine hydrochloride at a dose of 100 mg/kg intraperitoneally, and mean arterial blood pressure was monitored for 260 minutes using indwelling cannulae positioned in the tail arteries. Approximate thirty percent reductions in blood pressure were observed thirty to forty minutes following administration of this compound. At 260 minutes after administration of this compound, blood pressure remained reduced by approximately twenty percent when compared to vehicle-treated controls.
# [3] = target: T1, dopamine-β-hydroxylase (DBH) (Bos taurus, UniProt P15101); test: Dialysis of enzyme-inhibitor complexes to test reversibility of DBH inhibition; assay type: biochemical; conditions: for activity at 1000 µM: tyramine alone = 100%; for Amount of Product Formed Pre-Dialysis: approx. 3 hour incubation with DBH; for Amount of Product Formed Post-Dialysis: dialyzed overnight, pH 5.5 acetate buffer
# T1 sequence (P15101 1-610): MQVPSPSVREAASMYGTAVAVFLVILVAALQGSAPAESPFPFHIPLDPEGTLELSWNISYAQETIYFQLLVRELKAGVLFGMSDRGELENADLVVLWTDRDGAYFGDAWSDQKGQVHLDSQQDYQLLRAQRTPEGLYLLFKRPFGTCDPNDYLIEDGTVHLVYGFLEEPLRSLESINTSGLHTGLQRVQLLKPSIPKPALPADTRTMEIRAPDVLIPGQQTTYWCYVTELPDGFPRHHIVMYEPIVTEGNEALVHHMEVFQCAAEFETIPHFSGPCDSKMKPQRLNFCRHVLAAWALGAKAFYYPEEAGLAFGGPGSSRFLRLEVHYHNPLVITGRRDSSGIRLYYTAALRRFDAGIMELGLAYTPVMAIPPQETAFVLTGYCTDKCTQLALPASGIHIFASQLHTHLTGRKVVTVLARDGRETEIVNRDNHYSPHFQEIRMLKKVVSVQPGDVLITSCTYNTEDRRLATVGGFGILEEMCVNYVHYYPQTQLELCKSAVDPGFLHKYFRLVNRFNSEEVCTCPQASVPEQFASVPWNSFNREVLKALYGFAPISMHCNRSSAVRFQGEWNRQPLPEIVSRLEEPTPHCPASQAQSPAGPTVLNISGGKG
# Protocol: (§1) Presently invented also are methods of producing DBH inhibition in mammals, including humans, by administering an effective amount of 2-cyano-2-phenethylamine or a 2-cyano-2-(hydroxyphenyl)ethylamine compound. […] DBH activity was assayed by a standard procedure for measuring the conversion of tyramine to octopamine in the presence of DBH. J. J. Pisano, et al., Biochim. Biophy. Acta, 43, 566-68 (1960). Octopamine was assayed following sodium periodate oxidation to p-hydroxybenzaldehyde by measuring spectrophotometric absorbance at 330 nm.
# Dialysis of enzyme-inhibitor complexes was selected as the approach for testing the reversibility of the inhibition produced by these compounds. A known, reversible DBH inhibitor, fusaric acid, was utilized as a reference standard. Following approximate 3 hour incubation of DBH with one of the inhibitors, the rate of enzymatic conversion of tyramine to octopamine was measured by the standard procedure used in the enzyme kinetic analyses. Thereafter, the enzyme previously incubated with inhibitor was placed in a standard dialysis bag and dialyzed overnight against four changes of pH 5.5 acetate buffer. Following dialysis, the rate of enzymatic conversion of tyramine to octopamine again was measured.
# [4] = target: T1, dopamine-β-hydroxylase (DBH); test: DBH enzyme inhibition kinetics, conversion of tyramine to octopamine; assay type: biochemical; conditions: several inhibitor concentrations
# Protocol: as §1
# Further, the changing apparent rate constant and the unchanging maxiumum reaction rate indicate that the compounds useful in the presently invented method initially are competitive blockers of substrate-enzyme interactions.
# [5] = Teresawa et al., Japan. Cir. J. 35, 339 (1971); cited from earlier work
# DBH = conditions: Runti et al., Il Farmaco Ed. Sci. 36, 260 (1980); cited from earlier work
# [6] = Tyramine 10^-2 M and inhibitor 10^-3 M
# [7] = Tyramine 10^-2 M and Fusaric Acid 10^-4 M
compound,measurement,setting,value
N#CC(CN)c1ccccc1 (stereo not shown) [2-cyano-2-phenethylamine hydrochloride],DA/NE Ratio,"[1]; Experiment 1, 100 mg/kg orally",0.0716 ± 0.004
same,DA,"[1]; Experiment 1, 100 mg/kg orally",0.571 µg/g
same,NE,"[1]; Experiment 1, 100 mg/kg orally",7.96 µg/g
same,DA/NE Ratio,"[1]; Experiment 2, 100 mg/kg orally",0.0628 ± 0.0013
same,DA,"[1]; Experiment 2, 100 mg/kg orally",0.408 µg/g
same,NE,"[1]; Experiment 2, 100 mg/kg orally",6.47 µg/g
same,reduction in mean arterial blood pressure compared to vehicle-treated controls,[2]; at 260 minutes after administration,approximately twenty
same,reduction in mean arterial blood pressure,[2]; thirty to forty minutes following administration,thirty
same,activity at 1000 µM,"[3]; 3 h, Tyramine 10^-2 M and inhibitor 10^-3 M, read-out: DBH Activity Pre-Dialysis",8%
same,Amount of Product Formed Pre-Dialysis,[3]; [6],15.7 nM
same,Amount of Product Formed Post-Dialysis,[3]; [6],10.5 nM
same,activity at 1000 µM,"[3]; Tyramine 10^-2 M and inhibitor 10^-3 M, read-out: DBH Activity Post-Dialysis",5.5%
same,"DBH activity versus inhibitor concentration (FIG. 1, double-reciprocal plot)",[4],reductions in DBH activity were related directly to increasing 2-cyano-2-phenethylamine hydrochloride concentrations
"CCCCc1ccc(C(=O)O)nc1 [Fusaric Acid, reference compound]",DA/NE Ratio,"[1]; Experiment 1, 50 mg/kg orally",0.0994 ± 0.007
same,DA,"[1]; Experiment 1, 50 mg/kg orally",0.819 µg/g
same,NE,"[1]; Experiment 1, 50 mg/kg orally",8.31 µg/g
same,DA/NE Ratio,"[1]; Experiment 2, 50 mg/kg orally",0.112 ± 0.0055
same,DA,"[1]; Experiment 2, 50 mg/kg orally",0.615 µg/g
same,NE,"[1]; Experiment 2, 50 mg/kg orally",5.82 µg/g
same,toxic effect,[5],hepatotoxic
same,activity at 100 µM,"[3]; 3 h, read-out: DBH Activity Pre-Dialysis",2%
same,Amount of Product Formed Pre-Dialysis,[3]; [7],4.0 nM
same,Amount of Product Formed Post-Dialysis,[3]; [7],169.0 nM
same,activity at 100 µM,[3]; read-out: DBH Activity Post-Dialysis,89.2%
phenylpicolinic acid,DBH inhibitory activity relative to fusaric acid,DBH,twice the inhibitory activity of fusaric acid
